SMILES strings stand for the structures.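 The compound was tested at five concentrations on cells cultured in 96-well plates, with a 48-hour exposure period. Definition used: TGI = concentration required for complete inhibition of growth.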

Our source for the TGI values is PubChem BioAssay (NCI).

Assay in all cases: DTP human tumour cell line panel, 48 h
In assay [1] the test system is DU-145 prostate.
Assay [2] relates to HCC-2998 colon.
The test system of assay [3] is HCT-116 colon.
In assay [4] the test system is HS 578T breast.
Assay [5] concerns MDA-MB-231 breast.
For assay [6], the system named is NCI/ADR-RES ovarian.
Assay [7] concerns OVCAR-4 ovarian.
The subject of assay [8] is SNB-19 CNS.
Assay [9] deals with SNB-75 CNS.
Assay [10] concerns UACC-62 melanoma.
Assay [11] deals with HOP-62 NSCLC.

Usually TGI stands for the concentration giving total growth inhibition. As for `COc1ccccc1-n1c(=O)n(C)c(=O)n1C(C)(C)C`, the TGI in assay [1], in [2], in [3], in [4], in assay [5] and in assay [6] was above 100 µM each time. In addition, the TGI in assay [7], in [8], in assay [9] and in assay [10] was above 100 µM each time.

As to `Cc1ccc(S(=O)(=O)N2C[C@@H]3CC[C@]4(CO[Si](C)(C)C(C)(C)C)N[C@@H](c5ccccc5)[C@H]2[C@H]34)cc1`, the TGI in [1] was above 100 µM; in [2], 50.5 µM; in [3], above 100 µM; in assay [11], above 100 µM; in assay [4], above 100 µM; in [5], above 100 µM. Further, the TGI in assay [6], in assay [7], in assay [8] and in assay [10] was above 100 µM each time.

`CC(C)(C)OC(=O)NC12C3C4C1C1C2C3C41NC(=O)OC(C)(C)C` (stereo unspecified): the TGI is above 100 µM in assay [1]; above 100 µM in assay [2]; above 100 µM in assay [3]; above 100 µM in [11]; above 100 µM in assay [4]; 92.1 µM in assay [5]. For the same compound, the TGI in [6], in [7], in assay [8] and in assay [10] was above 100 µM throughout.

Take `N#CC1(C#N)C(C#N)(C#N)C1(C#N)C(N)=O`: the TGI in [1], in assay [2], in assay [3], in [11], in assay [4] and in assay [5] was above 100 µM in each case. In addition, the TGI in assay [6], in assay [7], in assay [8] and in [10] was above 100 µM throughout.

As for `CC[C@@]1(O)C(=O)OCc2c1cc1n(c2=O)Cc2c-1nc1ccc(O)cc1c2[Si](C)(C)C(C)(C)C`, the TGI in assay [1] is 0.0142 µM; in assay [2], 0.401 µM; in [3], 0.147 µM; in assay [11], 1.49 µM; in [4], above 57.9 µM; in [5] it was 20.6 µM. The TGI in assay [6] stood at 4.64 µM; in [7], 0.174 µM; in assay [9], 0.0162 µM; in [10], 0.164 µM.

For `C/C=C(\C)C(=O)OC1CC(OC(C)=O)C2(C(=O)OC)COC3C2C1(C)C1C2(C(=O)OC)OCC1(C3O)C1(O)C3CC(C4(O)C=COC4O3)C1(C)O2` (stereo unspecified), the TGI in [1], in assay [2], in assay [3], in assay [11], in assay [4] and in assay [5] was above 100 µM each time. The TGI in assay [6], in assay [7], in assay [9] and in assay [10] was above 100 µM in each case.

`N#C/C(=C/C=C/c1ccco1)C(N)=O`: the TGI in [1], in assay [2], in [11], in assay [4], in assay [5] and in assay [6] was above 10 µM in each case. Moreover, the TGI in [9] is above 10 µM.

With `COc1ccc(C#Cn2nnc3ccccc32)cc1`, the TGI is above 100 µM in assay [1]; 82 µM in assay [2]; above 100 µM in assay [3]; above 100 µM in assay [11]; above 100 µM in assay [4]; above 100 µM in [5]. Also, the TGI in assay [6], in assay [7], in [8] and in [10] was above 100 µM in each case.

Consider `COc1cccc(N=N/C(=N/NC(=O)c2ccc(C)cc2)c2ccc(N(CCC#N)CCC#N)cc2OC)c1`, for which the TGI in [1], in assay [2], in assay [3], in assay [11], in assay [4] and in [5] was above 100 µM each time. In addition, the TGI in assay [6], in assay [7], in assay [8] and in [10] was above 100 µM throughout.

Regarding `Cc1cc(C)c2c(c1)CC1(Cc3cc(C)c(C)cc3C1=O)C2=O` (stereo unspecified), the TGI in assay [1], in [2], in [4], in [5], in [6] and in assay [7] was above 100 µM each time. Further, the TGI in assay [8], in assay [9] and in assay [10] was above 100 µM each time.

As to `CCOC(=O)c1ccc(Nc2nc3ccccc3nc2-c2cccs2)cc1`, the total growth inhibition concentration (TGI) in assay [1] is above 100 µM; in assay [2], 77.7 µM; in assay [3], above 100 µM; in assay [11], above 100 µM; in assay [4] it was above 100 µM; in [5], above 100 µM. For the same compound, the TGI in assay [6] is above 100 µM; in [8] it was above 100 µM; in [9], above 100 µM; in assay [10], 33.6 µM.

For `Cc1cc(-n2nnc(C(=O)O)c2-c2ccccc2)c2ccc(Cl)cc2n1`, the TGI in assay [1], in assay [2], in assay [3], in [4], in assay [5] and in assay [6] was above 100 µM in each case. Further, the TGI in [7], in assay [8], in assay [9] and in [10] was above 100 µM in each case.

`Clc1sc(Cl)c2c1[C@@H](Cl)C[C@@H]2Cl`: the TGI in assay [1], in [2], in assay [3], in [11], in assay [4] and in assay [5] was above 100 µM each time. Further, the TGI in assay [6], in [7], in [9] and in [10] was above 100 µM in each case.
